The target of this test is T1, IP6KA^M85V (Entamoeba histolytica, UniProt N9UNA8, M85V).
T1 sequence (N9UNA8 1-270 M85V): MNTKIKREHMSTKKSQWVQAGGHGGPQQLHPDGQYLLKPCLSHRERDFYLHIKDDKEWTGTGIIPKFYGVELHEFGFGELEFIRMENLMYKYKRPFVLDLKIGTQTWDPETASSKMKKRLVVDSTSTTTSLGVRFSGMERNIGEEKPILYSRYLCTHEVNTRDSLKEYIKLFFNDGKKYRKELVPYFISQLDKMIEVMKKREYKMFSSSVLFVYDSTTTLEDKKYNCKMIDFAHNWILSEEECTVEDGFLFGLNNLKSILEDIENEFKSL
The test can be described thus: NMR activity assay for EhIP6KA constructs. The test is classed as biochemical.

The IC50 is the concentration that gives 50% inhibition. Low values mean greater potency in that assay, high ones weaker potency in that assay. For `O=C(O)c1ccc2c(c1)C(=O)N(c1ccc(-c3nc4ccc(N5C(=O)c6ccc(C(=O)O)cc6C5=O)cc4[nH]3)cc1)C2=O` [FMP-201300], 780 nM corresponded to half-maximal inhibition (IC50).

The values above are taken from article PMC10578927, “An unconventional gatekeeper mutation sensitizes inositol hexakisphosphate kinases to an allosteric inhibitor” (eLife, 2023).
